The values that follow come from BindingDB's records for doi:10.7270/Q2ZC817P (The Scripps Research Institute Molecular Screening Center, 2007).

pEC50: −log10 of the molar value. Structures can show the parent of a compound that is named as a salt. Where only a bound is given, the exact number is not on record here.

Sequence of Sphingosine 1-phosphate receptor 1 (P21453 whole entry): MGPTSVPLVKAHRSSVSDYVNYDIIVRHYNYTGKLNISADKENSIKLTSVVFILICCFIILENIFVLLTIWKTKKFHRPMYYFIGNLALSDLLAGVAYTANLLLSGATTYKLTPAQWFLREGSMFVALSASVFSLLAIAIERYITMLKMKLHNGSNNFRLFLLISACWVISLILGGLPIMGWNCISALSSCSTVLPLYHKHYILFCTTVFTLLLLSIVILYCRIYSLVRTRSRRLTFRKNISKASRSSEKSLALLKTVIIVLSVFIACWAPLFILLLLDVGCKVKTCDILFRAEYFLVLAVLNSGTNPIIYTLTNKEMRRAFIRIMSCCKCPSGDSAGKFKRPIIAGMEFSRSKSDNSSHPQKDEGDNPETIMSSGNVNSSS

One test addresses Sphingosine 1-phosphate receptor 1 (Homo sapiens, UniProt P21453). The test is described as follows: S1P1 agonism potentiation – cell-based, potentiator mode, 60K MLSMR set, dose response (AID 466).
Conditions: not given
For `CCOc1ccc(-c2nnc(-c3cccs3)o2)cc1OCC` [2-(3,4-Diethoxy-phenyl)-5-thiophen-2-yl-[1,3,4]oxadiazole], the pEC50 was 5.25.
The same measure, in the same setting: the result for `CC(C)(C)OC(=O)N[C@@H](Cc1ccccc1)c1nnc(S(=O)(=O)Cc2cccc(F)c2)o1` [tert-butyl N-[(1S)-1-[5-[(3-fluorophenyl)methylsulfonyl]-1,3,4-oxadiazol-2-yl]-2-phenylethyl]carbamate] reads 5.01; that for `CCOC(=O)CN1C(=O)C(C)(C)Oc2ccc(C(=O)Nc3ccccc3OC)cc21` [2-[3-keto-6-[(2-methoxyphenyl)carbamoyl]-2,2-dimethyl-1,4-benzoxazin-4-yl]acetic acid ethyl ester], 5.51.
Turning to `COc1ccc(CN=O)cc1COc1ccc(NC(C)=O)cc1` [MLS000111933], the pEC50 was below 4.02.
The same measure, in the same setting: the result for `COc1ccc(NC(=O)c2cc(-c3cccs3)on2)cc1OC` [MLS000087261] reads 5.28.
Take `CC1=NC(=O)NC(c2ccc(F)cc2)C1C(=O)OCc1ccc2c(c1)OCO2` (configuration not stated) [1,3-benzodioxol-5-ylmethyl 4-(4-fluorophenyl)-6-methyl-2-oxidanylidene-3,4-dihydro-1H-pyrimidine-5-carboxylate]: the pEC50 is 6.20.
Same read-out and setting: the result for `O=S(=O)(C/C(=C/CO)S(=O)(=O)c1ccccc1)c1ccccc1` [(Z)-3,4-bis(benzenesulfonyl)but-2-en-1-ol] reads 5.06; that for `CCOc1ccc(-c2nnc(-c3cccnc3)o2)cc1OCC` [2-(3,4-diethoxyphenyl)-5-(3-pyridinyl)-1,3,4-oxadiazole], 5.63; that for `O=C(Nc1ccc(N2CCCC2)c(Cl)c1)c1ccc(Br)o1` [5-bromanyl-N-(3-chloranyl-4-pyrrolidin-1-yl-phenyl)furan-2-carboxamide], 5.42.
`COC(=O)CS(=O)(=O)c1nnc([C@H](Cc2ccccc2)NC(=O)OC(C)(C)C)o1` [SMR000046685]: the pEC50 is 5.07.
Take `Cc1oc2cc(O)cc(O)c2c(=O)c1-c1ccc2c(c1)OCCCO2` [3-(3,4-dihydro-2H-1,5-benzodioxepin-7-yl)-2-methyl-5,7-bis(oxidanyl)chromen-4-one]: the pEC50 is 5.43.
With `O=S1(=O)Nc2c(ccc3cccnc23)-c2ccccc21` [5H-quinolino[8,7-c][1,2]benzothiazine 6,6-dioxide], the pEC50 was 5.49.
Regarding `Oc1ccc(C2NCc3ccccc3-n3cccc32)cc1Cl` (configuration not stated) [2-chloranyl-4-(5,6-dihydro-4H-pyrrolo[1,2-a][1,4]benzodiazepin-4-yl)phenol;hydrochloride], the pEC50 is 5.55.
As for `CCCCOc1ccc(S(=O)(=O)Nc2cccnc2)cc1` [4-butoxy-N-(3-pyridinyl)benzenesulfonamide], the pEC50 was 5.07.
With `O=C(Cc1c[nH]c2ccccc12)N1CCc2ccccc21`, the pEC50 was 5.11.
For `Cc1cc(C=Nn2cnnc2)c(C)n1-c1ccc(OCc2ccccc2F)cc1` [MLS000112180], the pEC50 is 6.10.
In the case of `CCCS(=O)(=O)c1nnnn1-c1cccc(OC)c1` [1-(3-methoxyphenyl)-5-(propylsulfonyl)-1H-tetrazole], the pEC50 is 5.50.
In the case of `CC(C)Cc1cc(C(=O)Nc2sc3c(c2C#N)CCCC3)no1` [MLS000116410], the pEC50 is 5.02.
For `Cc1cc(N2CCN(C/C=C/c3ccccc3)CC2)n2ncnc2n1` [5-Methyl-7-[4-((E)-3-phenyl-allyl)-piperazin-1-yl]-[1,2,4]triazolo[1,5-a]pyrimidine], the pEC50 is below 4.52.
In the case of `CCCCn1nnnc1SCC(=O)c1ccc(C)c(C)c1` [2-(1-Butyl-1H-tetrazol-5-ylsulfanyl)-1-(3,4-dimethyl-phenyl)-ethanone], the pEC50 is 5.21.
Same read-out and setting: the result for `Cc1ccc2[nH]c3c(N4CCN(Cc5ccc6c(c5)OCO6)CC4)ncnc3c2c1` reads below 4.52; that for `O=S(=O)(NCc1ccncc1)c1ccc(Br)s1` [5-bromanyl-N-(pyridin-4-ylmethyl)thiophene-2-sulfonamide], 5.66; that for `COc1cccc2sc(Nc3nc(-c4ccccn4)cs3)nc12` [(4-methoxy-1,3-benzothiazol-2-yl)-[4-(2-pyridyl)thiazol-2-yl]amine], 5.58.
As to `CCOc1ccc(-c2nc(-c3ccncc3)no2)cc1OCC` [4-[5-(3,4-diethoxyphenyl)-1,2,4-oxadiazol-3-yl]pyridine], the pEC50 is 6.65.
As to `Cc1oc(-c2ccccc2)nc1Cn1cccc1C1=NC(c2ccccc2)CO1` (configuration not stated) [SMR000026251], the pEC50 was 6.16.
Regarding `COc1ccc2[nH]c(=O)c3c(c2c1)OC(C)(C)C=C3`, the pEC50 is 5.20.
On to `CCc1c(C)nc2ncnn2c1NCCc1ccc(OC)cc1` [(6-Ethyl-5-methyl-[1,2,4]triazolo[1,5-a]pyrimidin-7-yl)-[2-(4-methoxy-phenyl)-ethyl]-amine], for which the pEC50 is 5.04.
With `CC(C)(CC(=O)N1CCN(c2ccc(Cl)cc2)CC1)CC1=NS(=O)(=O)c2ccccc2N1` [1-[4-(4-chlorophenyl)-1-piperazinyl]-4-(1,1-dioxo-4H-1,2,4-benzothiadiazin-3-yl)-3,3-dimethyl-1-butanone], the pEC50 is 5.00.
Still for that read-out and setting: the result for `CN(C)c1oc(-c2ccc(OCc3ccccc3)cc2)nc1C#N` [2-(4-benzoxyphenyl)-5-(dimethylamino)oxazole-4-carbonitrile] reads 5.52; that for `CC(C)C(c1nnnn1Cc1ccccc1)N(Cc1ccco1)Cc1cccs1` (configuration not stated) [1-(1-benzyltetrazol-5-yl)-N-(furan-2-ylmethyl)-2-methyl-N-(thiophen-2-ylmethyl)propan-1-amine], below 4.02.
Still for that read-out and setting: the result for `N#CCCS(=O)(=O)c1nnnn1-c1ccccc1` [3-(1-phenyltetrazol-5-yl)sulfonylpropanenitrile] reads 5.45; that for `COC(=O)c1ccc(OCC(O)Cn2nnc3ccccc32)cc1` (configuration not stated) [4-[3-(1-benzotriazolyl)-2-hydroxypropoxy]benzoic acid methyl ester], below 4.02.
As for `Cc1cc(N2CCN(c3nc4ccccc4s3)CC2)n2ncnc2n1` [2-[4-(5-methyl-[1,2,4]triazolo[1,5-a]pyrimidin-7-yl)-1-piperazinyl]-1,3-benzothiazole], the pEC50 was 5.20.
On to `Cn1c(SCC(=O)Nc2ccc(N3CCOCC3)c(Cl)c2)nnc1-c1ccccc1` [MLS000089171], for which the pEC50 was 5.69.
`COc1cc2c(cc1OC)C(C)N(C(=O)c1cc3ccccc3o1)CC2` (configuration not stated) [1-benzofuran-2-yl-(6,7-dimethoxy-1-methyl-3,4-dihydro-1H-isoquinolin-2-yl)methanone]: the pEC50 was below 4.52.
Turning to `CCOC(=O)c1c(C)[nH]c(C(=O)C(C)OC(=O)c2cccc(OCc3c(C)noc3C)c2)c1C` (configuration not stated) [MLS000054923], the pEC50 was 5.34.
Take `Cc1nc(NC(C)c2ccccc2)c2oc3ccccc3c2n1` (configuration not stated) [(2-methylbenzofuro[3,2-d]pyrimidin-4-yl)-(1-phenylethyl)amine]: the pEC50 was 5.01.
Turning to `Cc1ccc(-n2c(C)cc(C(=O)COC(=O)c3c(C)noc3C)c2C)cc1` [3,5-dimethyl-4-isoxazolecarboxylic acid [2-[2,5-dimethyl-1-(4-methylphenyl)-3-pyrrolyl]-2-oxoethyl] ester], the pEC50 is 5.10.
Still for that read-out and setting: the result for `CCOc1ccc(-c2noc(-c3cccnc3)n2)cc1OC` [3-(4-ethoxy-3-methoxy-phenyl)-5-(3-pyridyl)-1,2,4-oxadiazole] reads 6.11.

Still in this test, the particulars now being: inactive by the depositor's call.
As to `CCCOc1ccc(S(=O)(=O)NCc2ccc(OC)cc2)cc1` [MLS000104592], the pEC50 is 4.70.
For the molecule `CCN(CC)C(=O)Oc1ccc2c(=O)c(-c3ccc(OC)cc3)coc2c1` [MLS000083046], the pEC50 is 4.96.
Still for that read-out and setting: the result for `Cc1onc(-c2ccccc2Cl)c1C(=O)Oc1cc(N)n(S(=O)(=O)c2ccc(F)cc2)n1` [3-(2-chlorophenyl)-5-methyl-4-isoxazolecarboxylic acid [5-amino-1-(4-fluorophenyl)sulfonyl-3-pyrazolyl] ester] reads 4.70.
With `CCCc1cc2c(=O)c(-c3ccccn3)coc2cc1OC` [7-methoxy-6-propyl-3-(2-pyridinyl)-1-benzopyran-4-one], the pEC50 was 4.43.
As to `CC(C)[C@H](NC(=O)OC(C)(C)C)c1nnc(SCC(=O)Nc2ccc(Br)cc2)o1` [MLS000040800], the pEC50 is 4.79.
With `O=C(Nc1nc(-c2ccc3c(c2)OCO3)cs1)c1ccncc1` [MLS000073104], the pEC50 was 4.92.
For `Cc1ccc(S(=O)(=O)Nc2cccc3ncccc23)s1` [5-methyl-N-quinolin-5-ylthiophene-2-sulfonamide], the pEC50 was 4.56.
For `CSc1ccc(S(=O)(=O)Nc2ccc3c(c2)OCCO3)cc1` [MLS000115922], the negative-log EC50 (pEC50) is 4.74.
`CC(C)Cc1cc(C(=O)Nc2cc(Br)ccc2O)no1` [MLS000116399]: the pEC50 was 4.78.
For the molecule `Clc1ccc(CSc2nnc(-c3ccncc3)o2)c(Cl)c1` [2-[(2,4-dichlorobenzyl)thio]-5-(4-pyridyl)-1,3,4-oxadiazole], the negative-log EC50 (pEC50) is 4.41.
With `Cc1cc(C(=O)CN2C(=O)c3ccccc3C2=O)c(C)n1Cc1cccs1` [2-[2-[2,5-dimethyl-1-(2-thenyl)pyrrol-3-yl]-2-keto-ethyl]isoindoline-1,3-quinone], the pEC50 is 4.67.
Regarding `COc1ccccc1-n1nnnc1SCc1cc2c(cc1Br)OCO2` [5-[(6-bromanyl-1,3-benzodioxol-5-yl)methylsulfanyl]-1-(2-methoxyphenyl)-1,2,3,4-tetrazole], the pEC50 is 4.44.
Turning to `CN(Cc1cccs1)c1ncnc2sccc12` [MLS000056228], the pEC50 is 4.85.
Turning to `CCOC(=O)c1sc2nc(NC(=O)C(C)(C)C)sc2c1C` [2-[(2,2-dimethyl-1-oxopropyl)amino]-6-methyl-5-thieno[2,3-d]thiazolecarboxylic acid ethyl ester], the pEC50 was 5.00.
For the molecule `CCC(=O)Nc1ccc2c(c1)C(=O)N(C1CCCCC1)C2=O` [MLS000099936], the pEC50 was 4.24.
In the case of `COc1ccc(CNc2cc(C)nc3ncnn23)c(OC)c1` [(2,4-Dimethoxy-benzyl)-(5-methyl-[1,2,4]triazolo[1,5-a]pyrimidin-7-yl)-amine], the pEC50 is 4.80.
Consider `CCCOc1ccc(-c2nnc(-c3ccncc3)o2)cc1` [2-(4-propoxyphenyl)-5-(4-pyridyl)-1,3,4-oxadiazole], for which the pEC50 is 4.18.
For the molecule `CCSc1nc(N2CCOCC2)c2c(c1C#N)CCCC2` [3-(ethylthio)-1-(4-morpholinyl)-5,6,7,8-tetrahydroisoquinoline-4-carbonitrile], the pEC50 is 4.51.
